What all share (test): biochemical
What all share (design): Ubiquigent DUB profiler selectivity panel, remaining enzyme activity as % of control
Common to all, as to settings: read-out: % of control remaining

Experiment [1] has as its target T1, UCHL3 (Homo sapiens, UniProt P15374).
T1 sequence (P15374 1-230): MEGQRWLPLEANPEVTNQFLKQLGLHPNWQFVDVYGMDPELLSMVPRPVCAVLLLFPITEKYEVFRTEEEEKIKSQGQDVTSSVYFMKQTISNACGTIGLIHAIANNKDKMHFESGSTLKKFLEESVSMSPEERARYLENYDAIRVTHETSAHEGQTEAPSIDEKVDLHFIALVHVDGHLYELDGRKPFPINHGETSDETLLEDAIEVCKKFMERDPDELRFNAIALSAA
On the procedure: (§1) Previous work has reported IC50 values for a series of benzosulphonamide inhibitors, of which all those <1 μM were screened for selectivity, in comparison to three other USP family members ([20], [21]). We have selected one of these compounds (CMPD-39, Fig 1A) for a more rigorous test of selectivity provided by the Ubiquigent DUB profiler screening platform comprising >40 DUBs. […] To test engagement of the inhibitor with USP30 applied to intact cells, we assayed competition with Ub-PA (Ub-propargylamide). Ub-PA covalently binds to the USP30 active site leading to a characteristic upshift on a SDS–PAGE gel ([22]). If a drug blocks access to the catalytic site, then the probe modification is blocked and the apparent molecular weight of USP30 shifts down accordingly. […] A robust proxy read-out for target engagement is the enhancement of TOMM20 ubiquitylation after mitochondrial depolarization ([6], [16]). This second assay indicates a maximal effect with 200 nM CMPD-39 applied to RPE1-YFP-PRKN cells (Fig 1D).  Figure 1. CMPD-39 is a selective USP30 inhibitor. (A) Chemical structure of CMPD-39. (B) DUB specificity screen (DUB profiler, Ubiquigent) with 1-100 μM CMPD-39. […] Samples were incubated with CMPD-39 for 2 h at the indicated concentrations, then incubated with HA-Ub-PA probe for 10 min at 37°C and immunoblotted as shown. Red arrow indicates unbound USP30; blue arrow represents probe bound USP30. (D) Inhibition of USP30 enhances the ubiquitylation of TOMM20 in YFP-PRKN over-expressing hTERT-RPE1 cells in a concentration dependent manner in response to mitophagy induction. Cells were treated for 1 h with DMSO or antimycin A and oligomycin A (AO; 1 μM each) in the absence or presence of CMPD-39 at the indicated concentrations, lysed, and analyzed by Western blotting. Black arrow indicates unmodified TOMM20, ubiquitylated species are indicated by red (mono-ubiquitylated) or blue arrow heads. […] Source data are available for this figure.

Experiment [2] deals with T2, USP25 (Homo sapiens, UniProt Q9UHP3).
T2 sequence (Q9UHP3 1-1055): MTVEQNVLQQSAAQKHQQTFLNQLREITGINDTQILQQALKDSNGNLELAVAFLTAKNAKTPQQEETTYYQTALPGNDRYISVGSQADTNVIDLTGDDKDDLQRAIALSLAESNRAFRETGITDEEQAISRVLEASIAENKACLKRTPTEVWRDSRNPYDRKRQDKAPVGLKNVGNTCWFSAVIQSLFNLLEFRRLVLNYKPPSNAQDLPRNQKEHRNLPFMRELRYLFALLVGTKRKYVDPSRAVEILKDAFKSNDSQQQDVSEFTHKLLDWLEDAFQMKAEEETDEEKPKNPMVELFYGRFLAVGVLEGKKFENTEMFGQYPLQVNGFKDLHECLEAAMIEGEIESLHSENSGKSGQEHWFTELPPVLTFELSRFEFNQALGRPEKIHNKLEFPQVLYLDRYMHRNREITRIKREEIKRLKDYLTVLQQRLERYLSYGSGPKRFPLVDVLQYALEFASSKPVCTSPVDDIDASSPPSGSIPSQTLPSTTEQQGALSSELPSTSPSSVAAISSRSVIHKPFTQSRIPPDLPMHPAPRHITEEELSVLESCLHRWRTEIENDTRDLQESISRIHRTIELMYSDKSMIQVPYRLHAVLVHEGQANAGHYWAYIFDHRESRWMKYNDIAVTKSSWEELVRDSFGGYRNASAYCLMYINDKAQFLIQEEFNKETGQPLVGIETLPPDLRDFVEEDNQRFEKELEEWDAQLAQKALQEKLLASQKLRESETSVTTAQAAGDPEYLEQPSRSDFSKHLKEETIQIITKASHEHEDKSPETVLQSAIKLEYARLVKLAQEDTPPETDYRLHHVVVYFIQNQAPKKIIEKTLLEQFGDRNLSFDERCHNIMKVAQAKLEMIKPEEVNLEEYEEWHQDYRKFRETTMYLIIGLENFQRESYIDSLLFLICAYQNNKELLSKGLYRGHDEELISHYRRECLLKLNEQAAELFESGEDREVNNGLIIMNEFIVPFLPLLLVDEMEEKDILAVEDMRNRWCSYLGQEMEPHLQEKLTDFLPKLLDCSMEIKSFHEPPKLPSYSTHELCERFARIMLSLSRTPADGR
Here is the method: as §1

For experiment [3], the target named is T3, USP30 (Homo sapiens, UniProt Q70CQ3).
T3 sequence (Q70CQ3 1-517): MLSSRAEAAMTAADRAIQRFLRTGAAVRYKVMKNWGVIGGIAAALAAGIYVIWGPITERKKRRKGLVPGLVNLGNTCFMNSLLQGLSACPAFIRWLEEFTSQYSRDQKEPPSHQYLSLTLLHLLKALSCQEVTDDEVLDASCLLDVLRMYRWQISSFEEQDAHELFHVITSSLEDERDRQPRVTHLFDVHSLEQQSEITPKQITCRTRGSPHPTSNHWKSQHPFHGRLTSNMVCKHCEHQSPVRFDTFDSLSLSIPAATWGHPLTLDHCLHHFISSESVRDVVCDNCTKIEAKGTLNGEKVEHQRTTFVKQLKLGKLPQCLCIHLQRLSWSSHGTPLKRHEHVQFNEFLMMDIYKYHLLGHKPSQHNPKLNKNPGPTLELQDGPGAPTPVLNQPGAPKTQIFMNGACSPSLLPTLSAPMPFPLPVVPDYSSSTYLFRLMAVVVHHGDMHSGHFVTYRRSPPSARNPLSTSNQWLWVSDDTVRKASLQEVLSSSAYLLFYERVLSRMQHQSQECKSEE
On the procedure:
as §1

Regarding `CC(C)(C)NS(=O)(=O)c1ccc(NC(=O)[C@H](Cc2ccccc2)NC(=O)c2ccc(F)cc2)cc1` [compound 39, CMPD-39], the remaining activity at 1 µM is 107% in experiment [1], 103% in experiment [2] and 0.756% in experiment [3]. For the same compound, the remaining activity at 10 µM in experiment [1] is 98.8%; in experiment [2] it was 94.5%; in experiment [3] it was 0.5%. Besides, the remaining activity at 100 µM in experiment [1] was found to be 97.6%; in experiment [2], 103%; in experiment [3] it was 3.27%.

Source of the values: article PMC8645336, “Benchmarking a highly selective USP30 inhibitor for enhancement of mitophagy and pexophagy” (Life Science Alliance, 2021).
